Earlier results on 1 compound are cited in patent US10500240B2, “Use of terminalia chebula extract for treatment of osteoarthritis” (Natreon, Inc., priority 2013, dated 2019).

The test system of data set [1] is COX-1.
Data set [2] has as its system HepG2 cells. The conditions noted are these: with doxorubicin.
The test system of data set [3] is 5-LOX.
Data set [4] concerns the target maltase. Particulars: reversible and non-competitive inhibitor; read-out: K(i) value, maltase.

Consider `O=C(O)CC1C(=O)OC2C3COC(=O)c4cc(O)c(O)c(O)c4-c4c(cc(O)c(O)c4O)C(=O)OC2C(OC(=O)c2cc(O)c(O)c4c2C1C(O)C(=O)O4)C(OC(=O)c1cc(O)c(O)c(O)c1)O3` [Chebulagic acid, beta-1-O-galloyl-2,4-chebuloyl-3,6-(R)-hexahydroxydiphenoyl-D-glucose], for which the IC50 is 15 ± 0.288 µM in data set [1] and 2.1 ± 0.057 µM in data set [3]. The “enhanced the cytotoxicity of doxorubicin in HepG2 cells” value in data set [2] is given as 20 fold. Moreover, the Ki in data set [4] was 6.6 µM.
